In US20220389007A1, “INHIBITORS OF HUMAN IMMUNODEFICIENCY VIRUS REPLICATION” (VIIV HEALTHCARE UK (No. 5) LIMITED, priority 2019, published 2022):

Key:
recombinant NL4-3 virus = assay: HIV cell culture assay (antiviral activity, luciferase readout); type: cell-based; conditions: Human immunodeficiency virus 1, NL43, MT2, MT-2 cells infected for 4-5 days with recombinant NL4-3 virus carrying Renilla luciferase
Procedure: HIV cell culture assay—MT-2 cells, 293T cells and the proviral DNA clone of NL4-3 virus were obtained from the NIH AIDS Research and Reference Reagent Program. MT-2 cells were propagated in RPMI 1640 media supplemented with 10% heat inactivated fetal bovine serum (FBS), […]. The 293T cells were propagated in DMEM media supplemented with 10% heat inactivated FBS, […]. A recombinant NL4-3 proviral clone, in which a section of the nef gene was replaced with the Renilla luciferase gene, was used to make the reference virus used in these studies. The recombinant virus was prepared through transfection of the recombinant NL4-3 proviral clone into 293T cells using Transit-293 Transfection Reagent from Mirus Bio LLC (Madison, WI). Supernatent was harvested after 2-3 days and the amount of virus present was titered in MT-2 cells using luciferase enzyme activity as a marker by measuring luciferase enzyme activity. Luciferase was quantitated using the EnduRen Live Cell Substrate from Promega (Madison, Wis.). Antiviral activities of compounds toward the recombinant virus were quantified by measuring luciferase activity in MT-2 cells infected for 4-5 days with the recombinant virus in the presence of serial dilutions of the compound.
The 50% effective concentration (EC50) was calculated by using the exponential form of the median effect equation where (Fa)=1/[1+(ED50/drug conc.)m] (Johnson VA, Byington RT. Infectivity Assay. In Techniques in HIV Research. ed. Aldovini A, Walker BD. 71-76. New York: Stockton Press. 1990). The 50% inhibitory concentration (EC50) was calculated by using the exponential form of the median effect equation where percent inhibition=1/[1+(EC50/drug concentration)m], where m is a parameter that reflects the slope of the concentration-response curve.

[1] = Compound cytotoxicity, XTT-based colorimetric assay; type: cell-based; conditions: human; uninfected MT2 cells, day 4, XTT assay
Procedure: Compound cytotoxicity and the corresponding CC50 values were determined using the same protocol as described in the antiviral assay except that uninfected cells were used. Cytotoxicity was assessed on day 4 in uninfected MT2 cells by using a XTT (2,3-bis[2-Methoxy-4-nitro-5-sulfophenyl]-2H-tetrazolium-5-carboxyanilide inner salt)-based colorimetric assay (Sigma-Aldrich, St Louis, Mo.).

SMILES	EC50 (recombinant NL4-3 virus)	CC50 at 4 day [1]
Cn1nc(NS(C)(=O)=O)c2c(Cl)ccc(-n3c([C@H](Cc4cc(F)cc(F)c4)NC(=O)Cn4nc(C(F)F)c5c4C(F)(F)[C@@H]4C[C@H]54)nc4nc(-c5csc(C(C)(C)O)n5)ccc4c3=O)c21 (atropisomer, axis not shown; (P)) [Example 91, N-((S)-1-((3P)-3-(4-chloro-1-methyl-3-(methylsulfonamido)-1H-indazol-7-yl)-7-(2-(2-hydroxypropan-2-yl)thiazol-4-yl)-4-oxo-3,4-dihydropyrido[2,3-d]pyrimidin-2-yl)-2-(3,5-difluorophenyl)ethyl)-2-((3bS,4aR)-3-(difluoromethyl)-5,5-difluoro-3b,4,4a,5-tetrahydro-1H-cyclopropa[3,4]cyclopenta[1,2-c]pyrazol-1-yl)acetamide]	0.037 nM	> 100 nM
Cn1nc(NS(C)(=O)=O)c2c(Cl)ccc(-n3c([C@H](Cc4cc(F)cc(F)c4)NC(=O)Cn4nc(C(F)F)c5c4C(F)(F)[C@@H]4C[C@H]54)nc4nc(-c5ccnn5CC5CC5)ccc4c3=O)c21 (atropisomer, axis not shown; (P)) [Example 78, N-((S)-1-((3P)-3-(4-chloro-1-methyl-3-(methylsulfonamido)-1H-indazol-7-yl)-7-(1-(cyclopropylmethyl)-1H-pyrazol-5-yl)-4-oxo-3,4-dihydropyrido[2,3-d]pyrimidin-2-yl)-2-(3,5-difluorophenyl)ethyl)-2-((3bS,4aR)-3-(difluoromethyl)-5,5-difluoro-3b,4,4a,5-tetrahydro-1H-cyclopropa[3,4]cyclopenta[1,2-c]pyrazol-1-yl)acetamide]	0.09 nM	> 100 nM
Cn1nc(NS(C)(=O)=O)c2c(Cl)ccc(-n3c([C@H](Cc4cc(F)cc(F)c4)NC(=O)Cn4nc(C(F)F)c5c4C(F)(F)[C@@H]4C[C@H]54)nc4nc(-c5ccccc5C(F)(F)F)ccc4c3=O)c21 (atropisomer, axis not shown; (P)) [Example 25, N-((S)-1-((3P)-3-(4-chloro-1-methyl-3-(methylsulfonamido)-1H-indazol-7-yl)-4-oxo-7-(2-(trifluoromethyl)phenyl)-3,4-dihydropyrido[2,3-d]pyrimidin-2-yl)-2-(3,5-difluorophenyl)ethyl)-2-((3bS,4aR)-3-(difluoromethyl)-5,5-difluoro-3b,4,4a,5-tetrahydro-1H-cyclopropa[3,4]cyclopenta[1,2-c]pyrazol-1-yl)acetamide]	0.06 nM	> 100 nM
Cn1nc(NS(C)(=O)=O)c2c(Cl)ccc(-n3c([C@H](Cc4cc(F)cc(F)c4)NC(=O)Cn4nc(C(F)F)c5c4C(F)(F)[C@@H]4C[C@H]54)nc4nc(-c5cccc(OC(F)F)c5)ccc4c3=O)c21 (atropisomer, axis not shown; (P)) [Example 20, N-((S)-1-((3P)-3-(4-chloro-1-methyl-3-(methylsulfonamido)-1H-indazol-7-yl)-7-(3-(difluoromethoxy)phenyl)-4-oxo-3,4-dihydropyrido[2,3-d]pyrimidin-2-yl)-2-(3,5-difluorophenyl)ethyl)-2-((3bS,4aR)-3-(difluoromethyl)-5,5-difluoro-3b,4,4a,5-tetrahydro-1H-cyclopropa[3,4]cyclopenta[1,2-c]pyrazol-1-yl)acetamide]	0.2 nM	> 100 nM
Cc1cc(-c2ccc3c(=O)n(-c4ccc(Cl)c5c(NS(C)(=O)=O)nn(C)c45)c([C@H](Cc4cc(F)cc(F)c4)NC(=O)Cn4nc(C(F)F)c5c4C(F)(F)[C@@H]4C[C@H]54)nc3n2)n(CC(C)(F)F)n1 (single isomer, unassigned) [Example 97]	12 nM	> 100 nM
Cc1cc(-c2ccc3c(=O)n(-c4ccc(Cl)c5c(NS(C)(=O)=O)nn(C)c45)c([C@H](Cc4cc(F)cc(F)c4)NC(=O)Cn4nc(C(F)F)c5c4C(F)(F)[C@@H]4C[C@H]54)nc3n2)nc(C(F)(F)F)n1 (atropisomer, axis not shown; (P)) [Example 18, N-((S)-1-((3P)-3-(4-chloro-1-methyl-3-(methylsulfonamido)-1H-indazol-7-yl)-7-(6-methyl-2-(trifluoromethyl)pyrimidin-4-yl)-4-oxo-3,4-dihydropyrido[2,3-d]pyrimidin-2-yl)-2-(3,5-difluorophenyl)ethyl)-2-((3bS,4aR)-3-(difluoromethyl)-5,5-difluoro-3 b,4,4a,5-tetrahydro-1H-cyclopropa[3,4]cyclopenta[1,2-c]pyrazol-1-yl)acetamide]	0.068 nM	> 100 nM
Cn1nc(NS(C)(=O)=O)c2c(Cl)ccc(-n3c([C@H](Cc4cc(F)cc(F)c4)NC(=O)Cn4nc(C(F)F)c5c4C(F)(F)[C@@H]4C[C@H]54)nc4nc(-c5ncc(Cl)nc5Cl)ccc4c3=O)c21 (atropisomer, axis not shown; (P)) [Example 57, N-((S)-1-((3P)-3-(4-chloro-1-methyl-3-(methylsulfonamido)-1H-indazol-7-yl)-7-(3,5-dichloropyrazin-2-yl)-4-oxo-3,4-dihydropyrido[2,3-d]pyrimidin-2-yl)-2-(3,5-difluorophenyl)ethyl)-2-((3bS,4aR)-3-(difluoromethyl)-5,5-difluoro-3b,4,4a,5-tetrahydro-1H-cyclopropa[3,4]cyclopenta[1,2-c]pyrazol-1-yl)acetamide]	0.073 nM	> 100 nM
Cc1ccnc(-c2ccc3c(=O)n(-c4ccc(Cl)c5c(NS(C)(=O)=O)nn(C)c45)c([C@H](Cc4cc(F)cc(F)c4)NC(=O)Cn4nc(C(F)F)c5c4C(F)(F)[C@@H]4C[C@H]54)nc3n2)c1 (atropisomer, axis not shown; (P)) [Example 49, N-((S)-1-((3P)-3-(4-chloro-1-methyl-3-(methylsulfonamido)-1H-indazol-7-yl)-7-(4-methylpyridin-2-yl)-4-oxo-3,4-dihydropyrido[2,3-d]pyrimidin-2-yl)-2-(3,5-difluorophenyl)ethyl)-2-((3bS,4aR)-3-(difluoromethyl)-5,5-difluoro-3b,4,4a,5-tetrahydro-1H-cyclopropa[3,4]cyclopenta[1,2-c]pyrazol-1-yl)acetamide]	0.018 nM	> 100 nM
Cn1nc(NS(C)(=O)=O)c2c(Cl)ccc(-n3c([C@H](Cc4cc(F)cc(F)c4)NC(=O)Cn4nc(C(F)F)c5c4C(F)(F)[C@@H]4C[C@H]54)nc4nc(-c5cc(C(F)(F)F)cc(C(F)(F)F)n5)ccc4c3=O)c21 (atropisomer, axis not shown; (P)) [Example 14, N-((S)-1-(7-(4,6-bis(trifluoromethyl)pyridin-2-yl)-(3P)-3-(4-chloro-1-methyl-3-(methylsulfonamido)-1H-indazol-7-yl)-4-oxo-3,4-dihydropyrido[2,3-d]pyrimidin-2-yl)-2-(3,5-difluorophenyl)ethyl)-2-((3bS,4aR)-3-(difluoromethyl)-5,5-difluoro-3b,4,4a,5-tetrahydro-1H-cyclopropa[3,4]cyclopenta[1,2-c]pyrazol-1-yl)acetamide]	0.28 nM	> 100 nM
Cn1nc(NS(C)(=O)=O)c2c(Cl)ccc(-n3c([C@H](Cc4cc(F)cc(F)c4)NC(=O)Cn4nc(C(F)F)c5c4C(F)(F)[C@@H]4C[C@H]54)nc4nc(-c5nccnc5Cl)ccc4c3=O)c21 (atropisomer, axis not shown; (P)) [Example 61, N-((S)-1-((3P)-3-(4-chloro-1-methyl-3-(methylsulfonamido)-1H-indazol-7-yl)-7-(3-chloropyrazin-2-yl)-4-oxo-3,4-dihydropyrido[2,3-d]pyrimidin-2-yl)-2-(3,5-difluorophenyl)ethyl)-2-((3bS,4aR)-3-(difluoromethyl)-5,5-difluoro-3b,4,4a,5-tetrahydro-1H-cyclopropa[3,4]cyclopenta[1,2-c]pyrazol-1-yl)acetamide]	0.025 nM	> 100 nM
Cc1nccnc1-c1ccc2c(=O)n(-c3ccc(Cl)c4c(NS(C)(=O)=O)nn(C)c34)c([C@H](Cc3cc(F)cc(F)c3)NC(=O)Cn3nc(C(F)F)c4c3C(F)(F)[C@@H]3C[C@H]43)nc2n1 (atropisomer, axis not shown; (P)) [Example 7, N-((S)-1-((3P)-3-(4-chloro-1-methyl-3-(methylsulfonamido)-1H-indazol-7-yl)-7-(3-methylpyrazin-2-yl)-4-oxo-3,4-dihydropyrido[2,3-d]pyrimidin-2-yl)-2-(3,5-difluorophenyl)ethyl)-2-((3bS,4aR)-3-(difluoromethyl)-5,5-difluoro-3b,4,4a,5-tetrahydro-1H-cyclopropa[3,4]cyclopenta[1,2-c]pyrazol-1-yl)acetamide]	0.02 nM	> 100 nM
